Data published in article PMC5075052, “Modulation of the Substitution Pattern of 5-Aryl-2-Aminoimidazoles Allows Fine-Tuning of Their Antibiofilm Activity Spectrum and Toxicity” (Antimicrobial Agents and Chemotherapy, 2016).
Where two headings read alike, the source gives them in different places.

What was measured:
[1] = tested on: S. aureus SH1000; assay: Monospecies bacterial biofilm inhibition, static peg assay; format: cell-based, Staphylococcus aureus
Protocol: (§1) A static peg assay, described previously ([27], [74]), was used for bacterial biofilm formation. The Calgary biofilm device consists of a platform carrying 96 polystyrene pegs (Nunc no. 445497) that fits as a microtiter plate lid, with 1 peg hanging into each microtiter plate well (Nunc no. 269789). Twofold serial dilutions of the compounds (dissolved in 100% dimethyl sulfoxide [DMSO] or ethanol) in 100 μl liquid broth (TSB diluted 1/20) per well were prepared in the microtiter plate in duplicate or triplicate with a maximum concentration of 1,600 μM and a minimum concentration of 0.8 μM. Subsequently, an overnight culture of S. Typhimurium ATCC 14028, P. aeruginosa PA14, E. coli TG1, S. epidermidis, S. aureus SH1000, or S. aureus ATCC 6538 (all grown in LB) was diluted 1:100 into TSB diluted 1/20 (or TSB for S. epidermidis, S. aureus SH1000, and S. aureus ATCC 6538), whereas overnight cultures of S. liquefaciens MG44 and B. cepacia LMG1222T were diluted 1:50 into TSB diluted 1/20. P. gingivalis ATCC 33277 cultures were diluted in TSB diluted 1/20 to have a final concentration of 1 × 10^8 cells/ml. Next, 100 μl was added to each well of the microtiter plate, resulting in a total volume of 200 μl medium per well (final concentration range of compounds, 800 μM [2% DMSO or ethanol] to 0.4 μM [0.001% DMSO or ethanol]). In the next step, the pegged lid was placed on the microtiter plate and the plate was incubated for 24 h or 48 h at 25°C or 37°C without shaking. At 37°C, the plates were placed in a sealed container with wet towels on the bottom to prevent evaporation of the growth medium. Biofilms of P. gingivalis ATCC 33277 were grown anaerobically at 37°C for 72 h. During this incubation period, biofilms were formed on the surface of the pegs. After incubation, the optical density at 600 nm (OD600) for the planktonic cells in the microtiter plate was measured using a Synergy MX multimode reader (BioTek, Winooski, VT). This gives a first indication of the effect of the compounds on planktonic growth. For quantification of biofilm formation, the pegs were washed once in 200 μl PBS. The remaining attached bacteria were stained for 30 min with 200 μl 0.1% (wt/vol) crystal violet in an isopropanol-methanol-PBS solution (1:1:18, vol/vol). Excess stain was rinsed off by placing the pegs in a 96-well plate filled with 200 μl distilled water per well. After air drying of the pegs (30 min), the dye bound to the adherent biofilm was extracted with 30% glacial acetic acid (200 μl per well of a 96-well plate). The optical density at 570 nm (OD570) of each well was measured using a Synergy MX multimode reader (BioTek, Winooski, VT). The concentration of each compound needed to inhibit biofilm formation by 50% (BIC50) and the concentration of each compound needed to inhibit planktonic growth by 50% (IC50) were determined from the concentration gradient by using nonlinear curve fitting (GraphPad Prism software, version 5; GraphPad Software, Inc., La Jolla, CA). In the same assay, the effect on planktonic growth was evaluated. The activity was considered biofilm specific if the BIC50 was at least two times lower than the IC50. Data represent the means from at least 3 technical repeats with the corresponding 95% confidence intervals (provided in the supplemental material).

[2] = tested on: S. epidermidis; assay: as above; format: cell-based, Staphylococcus epidermidis; settings: Staphylococcus epidermidis, 37°C
Protocol: as §1

[3] = tested on: S. Typhimurium ATCC 14028; assay: as above; format: cell-based, Salmonella enterica serovar Typhimurium; settings: Salmonella enterica, S. Typhimurium ATCC 14028, 25°C
Protocol: as §1

[4] = tested on: S. liquefaciens MG44; assay: as above; format: cell-based, Serratia liquefaciens; settings: Serratia liquefaciens
Protocol: as §1

[5] = tested on: C. albicans SC5314; assay: Inhibition of C. albicans biofilms, CellTiter-Blue quantification; format: cell-based, Candida albicans; settings: Candida albicans; C. albicans SC5314, 37°C, CTB method; read-out: BIC50 (μM) for C. albicans SC5314 (37°C)
Protocol: The potential of the compounds to prevent C. albicans SC5314 biofilm formation was assessed using the CellTiter-Blue (CTB) quantification method ([75]). […]. Twofold serial dilutions of the compounds (dissolved in 100% DMSO or ethanol) in 100 μl RPMI 1640 medium per well were prepared in a round-bottom polystyrene 96-well microtiter plate (TPP; Trasadingen, Switzerland) in duplicate or triplicate with a maximum concentration of 1,600 μM and a minimum concentration of 0.8 μM. One hundred microliters of the cell suspension was added to each well of the microtiter plate, resulting in a total volume of 200 μl medium per well (final concentration range of compounds, 800 μM [2% DMSO or ethanol] to 0.4 μM [0.001% DMSO or ethanol]). After 16 h of static incubation at 37°C, the biofilms were washed and quantified by the CTB method as described previously ([73]).

[6] = tested on: C. albicans SC5314 + S. epidermidis; assay: Mixed C. albicans-S. epidermidis biofilm, selective plating CFU; format: cell-based, Candida albicans + Staphylococcus epidermidis; settings: 37°C
Protocol: Overnight cultures of C. albicans SC5314 (YPD) and S. epidermidis (TSB) were diluted in RPMI 1640 medium to OD600s of 0.05 and 0.01, respectively. Equal volumes of the cell suspensions of each organism were mixed before use. One hundred microliters of this mixed cell suspension together with compound was added to the wells of a round-bottom microtiter plate (TPP; Trasadingen, Switzerland) in triplicate. Concentrations of 25 μM (0.0625% DMSO or ethanol) and 100 μM (0.25% DMSO or ethanol) were tested. After 24 h of incubation at 37°C, the biofilms were washed with PBS and fresh medium with or without compounds was added. After a further incubation for 48 h at 37°C, the biofilms were washed with PBS, after which the cells were resuspended in 100 μl of PBS by scraping them off, sonicated (1 min, 45 kHz; USC300-T; VWR, Radnor, PA, USA), and vigorously pipetted up and down. Finally, the biofilm cells were diluted in PBS and plated on YPD agar plates containing 100 mg/liter ampicillin and TSA plates containing 25 mg/liter amphotericin B to determine the number of fungal and bacterial CFU, respectively, after 2 days of incubation at 37°C. The percentage of C. albicans SC5314 and S. epidermidis cells relative to the number of cells after DMSO or ethanol control treatment was determined.

[7] = Staphylococcus aureus, SH1000, S. aureus SH1000, 37°C, read-out: BIC50
[8] = Staphylococcus aureus, SH1000, S. aureus SH1000, 37°C, read-out: IC50 (planktonic growth)
[9] = read-out: IC50 (planktonic growth)
[10] = S. liquefaciens MG44, 25°C, read-out: BIC50
[11] = S. liquefaciens MG44, 25°C, read-out: IC50 (planktonic growth)
[12] = 25 μM compound, read-out: % CFU survival, C. albicans
[13] = 25 μM compound, read-out: % CFU survival, S. epidermidis
[14] = 100 μM compound, read-out: % CFU survival, C. albicans
[15] = 100 μM compound, read-out: % CFU survival, S. epidermidis

SMILES | IC50 [1, 7] | IC50 [1, 8] | IC50 ([2]; read-out: BIC50) | IC50 [2, 9] | IC50 ([3]; read-out: BIC50) | IC50 [4, 10] | IC50 [4, 11] | IC50 [5] | IC50 ([1]; S. aureus SH1000, 37°C, read-out: BIC50) | % CFU survival, C. albicans ([6]; 25 μM compound) | % CFU survival, S. epidermidis ([6]; 25 μM compound) | activity at 25 µM [6, 12] | activity at 25 µM [6, 13] | activity at 100 µM [6, 14] | activity at 100 µM [6, 15] | IC50 ([4]; MG44, read-out: BIC50) | IC50 ([4]; MG44, read-out: IC50 (planktonic growth)) | % CFU survival, S. epidermidis ([6]; 100 μM compound) | IC50 [3, 9]
CCCCCn1c(-c2ccccc2)cnc1N [Compound 1] | 163 µM | > 400 µM | ~202 µM | ~329 µM | 48.4 µM | 168 µM | 177 µM | 145 µM | – | – | – | – | – | – | – | – | – | – | –
CCCCCCCCn1c(-c2ccc(Cl)cc2)cnc1N [Compound 2] | 2 to 6 µM | 8.3 µM | – | ~11.1 µM | ~5.9 µM | 18.8 µM | 38 µM | 6.2 µM | 3.4 µM | completely inhibited | completely inhibited | < 0.6% | 0% | < 0.2% | 0% | – | – | – | –
CC(C)CNc1ncc(-c2ccc(Cl)cc2)[nH]1 [Compound 3] | 200 µM | 175 µM | > 400 µM | 86.2 µM | 2 µM | – | – | 93.9 µM | – | – | – | 58.3% | 64.6% | 235% | 13.2% | 10.4 µM | 154 µM | – | –
CCCCNc1ncc(-c2ccc(Br)cc2)[nH]1 [Compound 4] | 66.5 µM | 89.4 µM | > 400 µM | 54.4 µM | 7.1 µM | 4.4 µM | 118 µM | 66.7 µM | – | – | – | – | – | – | – | – | – | – | –
Clc1ccc(-c2cnc(NC3CCCC3)[nH]2)cc1 [Compound 5] | 70.6 µM | 71.5 µM | > 400 µM | 39.5 µM | 4.4 µM | 8.8 µM | 125 µM | 64 µM | – | – | – | 168% | 72% | 595% | 2.3% | – | – | complete inhibition | –
Brc1ccc(-c2cnc(NCCn3cc(C4CC4)nn3)[nH]2)cc1 [Compound 6] | > 400 µM | > 400 µM | > 400 µM | > 400 µM | 2 µM | 63.3 µM | > 400 µM | > 400 µM | – | – | – | – | – | – | – | – | – | – | 2.4 µM
CCCCCCCCn1c(-c2ccccc2)cnc1NCC(C)C [Compound 8a] | – | – | – | – | – | – | – | 9.3 µM | – | – | – | 62.4% | – | 1% | 1% | – | – | – | –
CCCCCCCCn1c(-c2ccc(Cl)cc2)cnc1NCC(C)C [Compound 8b] | – | – | – | – | – | – | – | 11 µM | – | – | – | 2% | 6.1% | 18.2% | 0.7% | – | – | – | –
CCCCCCCCn1c(-c2ccc(Br)cc2)cnc1NCC(C)C [Compound 8c] | – | – | – | – | – | – | – | > 100 µM | – | – | – | 3.2% | 637% | 8.4% | 966% | – | – | – | –
CCCCCCCCn1c(-c2ccc(Cl)c(Cl)c2)cnc1NCC(C)C [Compound 8d] | – | – | – | – | – | – | – | > 100 µM | – | – | – | 2.5% | – | 1.4% | – | – | – | – | –
CCCCCCCCn1c(-c2ccccc2)cnc1NC1CCCC1 [Compound 8e] | – | – | – | – | – | – | – | ~11.9 µM | – | – | – | 10% | 93.1% | 2.5% | 0% | – | – | – | –
CCCCCCCCn1c(-c2ccc(Cl)cc2)cnc1NC1CCCC1 [Compound 8f] | – | – | – | – | – | – | – | 8.9 µM | – | – | – | 2.9% | 2.5% | 7.2% | 0.3% | – | – | – | –
CCCCCCCCn1c(-c2ccc(Br)cc2)cnc1NC1CCCC1 [Compound 8g] | – | – | – | – | – | – | – | 21.1 µM | – | – | – | 3.3% | 0% | 5.9% | 0% | – | – | – | –
CCCCCCCCn1c(-c2ccc(Cl)c(Cl)c2)cnc1NC1CCCC1 [Compound 8h] | – | – | – | – | – | – | – | > 100 µM | – | – | – | 6.7% | 2% | 3.5% | 2.2% | – | – | – | –
